Legend:
[1] = test system: breast cancer (MCF-7) cell line; experiment: Antiproliferative MTT assay, MCF-7; assay type: cell-based; conditions: Homo sapiens, MCF7, MCF-7 breast cancer cells, read-out: Antiproliferative activity IC50 ± SEM MCF-7
Experimental: (§1) 4.2.1.2. Assay for antiproliferative effect
(§2) To explore the antiproliferative potential of compounds MTT assay was performed according to previously reported procedure using different cell lines to explore the antiproliferative potential of […]
(§3) calculate the total nuclear DNA, a fluorescent dye (propidium iodide, PI) is used which can attach to the DNA, thus offering a quick and precise technique. PI cannot pass through the cell membrane and its signal intensity can be considered as directly proportional to quantity of cellular DNA.
(§4) Cells whose cell membranes are damaged or have changed permeability are counted as dead ones.
(§5) The assay was performed by seeding the cells of different cell lines at a density of 3000-7500 cells/well (in 200µl medium) in culture plates followed by incubation for 24h at 37 °C in humidified 5% CO2/95% air atmospheric conditions. The medium was removed; the compounds were added to the plates at 10 µM concentrations (in 0.1% DMSO) in triplicates, followed by incubation for 48 h. DMSO (0.1%) was used as control. After incubation, medium was removed […]
(§6) 80 °C, the plates were allowed to freeze for 24 h, followed by thawing at 25 °C. […]
(§7) (Polar-Star BMG Tech) was used to record the readings at excitation and emission wavelengths of 530 and 620 nm for each well. The percentage cytotoxicity of compounds was calculated using […]
(§8) Where ATC= Absorbance of treated cells and AC= Absorbance of control. Erlotinib was used as positive control in the assay.

A-549 cells = experiment: Cell cycle analysis by flow cytometry; assay type: cell-based, human; conditions: A-549, IC50 concentration, 24 h
Description: Compound 9b was investigated for its effects on cell cycle progression and apoptosis induction in A-549 cells. […] The cell line was labeled with PI/Annexin V, and flow cytometry was done with a BD FASC Caliber ([El-Sherief et al., 2018]).
Compound 9b was investigated for its effects on cell cycle progression and apoptosis induction in A-549 cells. […] The cell line was labeled with PI/Annexin V, and flow cytometry was done with a BD FASC Caliber ([El-Sherief et al., 2018]). See Supplementary Appendix A for more details.

[2] = test system: lung cancer (A-549) cell line; experiment: Antiproliferative MTT assay, A-549; assay type: cell-based; conditions: Homo sapiens, A549, A-549 lung cancer cells, read-out: Antiproliferative activity IC50 ± SEM A-549
Experimental: as §1, §2, §3, §4, §5, §6, §7, §8

BRAF^V600E = target: T1, BRAF^V600E (Homo sapiens, UniProt P15056, V600E); experiment: BRAF^V600E kinase inhibitory assay; assay type: biochemical, Mouse; conditions: read-out: BRAF^V600E inhibition IC50 ± SEM
T1 construct: Mouse full-length GST-tagged BRAFV600E; GST; purchased Invitrogen PV3849
T1 sequence (P15056 2-766 V600E limits assumed): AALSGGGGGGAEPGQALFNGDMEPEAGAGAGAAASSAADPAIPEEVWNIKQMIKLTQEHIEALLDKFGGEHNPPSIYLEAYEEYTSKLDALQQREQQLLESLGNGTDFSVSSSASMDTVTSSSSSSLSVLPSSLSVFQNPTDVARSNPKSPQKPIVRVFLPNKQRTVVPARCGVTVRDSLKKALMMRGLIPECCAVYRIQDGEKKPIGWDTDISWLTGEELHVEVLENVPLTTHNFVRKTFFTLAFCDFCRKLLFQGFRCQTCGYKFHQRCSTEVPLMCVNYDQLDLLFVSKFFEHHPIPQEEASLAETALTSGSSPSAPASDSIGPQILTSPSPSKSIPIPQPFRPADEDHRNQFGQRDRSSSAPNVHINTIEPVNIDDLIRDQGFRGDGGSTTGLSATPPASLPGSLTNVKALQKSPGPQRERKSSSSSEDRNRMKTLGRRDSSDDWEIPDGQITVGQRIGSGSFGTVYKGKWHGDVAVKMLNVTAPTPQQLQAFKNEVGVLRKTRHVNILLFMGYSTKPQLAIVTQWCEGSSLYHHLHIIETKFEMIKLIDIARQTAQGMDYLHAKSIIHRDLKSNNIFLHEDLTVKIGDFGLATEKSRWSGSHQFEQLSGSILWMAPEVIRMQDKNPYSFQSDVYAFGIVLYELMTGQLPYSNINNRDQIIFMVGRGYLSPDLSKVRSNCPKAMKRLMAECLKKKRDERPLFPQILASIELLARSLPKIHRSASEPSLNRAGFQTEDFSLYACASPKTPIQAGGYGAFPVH
Experimental: Refer to Supplementary Appendix A for more details. […]
4.2.1.4. BRAF kinase assay […]
against BRAF. Mouse full-length GST-tagged BRAFV600E (7.5 ng, Invitrogen, PV3849) was pre-incubated with drug (1 µL) and assay dilution buffer (4 µL) for 60 min at 25 °C. In assay dilution buffer, a solution (5 µL) containing MgCl2 (30 mM), ATP (200 µM), recombinant human full length (200 ng) […] N-terminal His-tagged MEK1 (Invitrogen) was added to start the assay, subsequent to incubation for 25 min at 25 °C. The assay was stopped using 5X protein denaturing buffer (LDS) solution (5 µL). To further denature the protein, heat (70° C) was applied for 5 min.
10 µL of each reaction was loaded into the precast plates and electrophoresis was allowed to proceed. After completion of electrophoresis, the front part of the precast gel plate (holding hot ATP) was cut and afterwards cast-off. The dried gel was developed using a phosphor screen. A […]
served as positive control. […]
(FITC) and propidium iodide (PI) staining kit (BD Pharmingen, San Diego, USA). […]
4.3. Statistical analysis
Computerized Prism 5 program was used to statistically analyzed data using one-way ANOVA test followed by Tukey’s as post ANOVA for multiple comparison at P ≤.05. Data were presented

[3] = Cell viability, MTT test on normal cell line; assay type: cell-based; conditions: human, MCF-10A mammary gland epithelial cells (normal cell line), MCF-10A normal cells, 4 days incubation
Experimental: The human mammary gland epithelial (MCF-10A) normal cell line was used to test the viability of novel compounds 9a-o ([Mahmoud et al., 2022]; [Mekheimer et al., 2022]). After 4 days of incubation on MCF-10A cells, the cell viability of compounds 9a-o was determined using the MTT test.
The human mammary gland epithelial (MCF-10A) normal cell line was used to test the viability of compounds 9a-o ([Mahmoud et al., 2022]; [Mekheimer et al., 2022]). Refer to Supplementary Appendix A (Supplementary Material) for more details.
4.2. Biological evaluation
4.2.1. Cytotoxic activity using MTT Assay and evaluation of IC50
MTT assay was carried out to study the effect of compounds on mammary epithelial cells (MCF-10A). The medium in which cells were propagated contained Dulbecco's modified Eagle's medium (DMEM)/ Ham's F-12 medium (1:1) supplemented with epidermal growth factor (20 ng/mL), hydrocortisone (500 ng/mL), insulin (10 μg/mL), 2 mM glutamine and 10% foetal calf serum.
After every 2-3 days, the cells were passaged using trypsin ethylenediamine tetra acetic acid (EDTA). The cells were seeded at a density of 10^4 cells mL-1 in flat-bottomed culture plates containing 96 wells each. After 24 h, medium was removed from the plates and the compounds in (in 0.1% DMSO) were added (in 200 μL medium to yield a final concentration of 0.1% v/v) to the wells of plates. A single compound was designated with four wells followed by incubation of plates for 96h at 37°C. After incubation, medium was removed completely from the plates followed by addition of MTT (0.4 mg/mL in medium) to each well and subsequent incubation of plates for 3h. MTT (along with the medium) was removed and DMSO (150μL) was added to each well of the culture plates, followed by vertexing and subsequent measurement of absorbance (at 540 nm) using microplate reader. The data are shown as percentage inhibition of proliferation in comparison with controls containing 0.1% DMSO.

[4] = test system: pancreatic cancer (Panc-1) cell line; experiment: Antiproliferative MTT assay, Panc-1; assay type: cell-based; conditions: Homo sapiens, Panc-1 pancreatic cancer cells, read-out: Antiproliferative activity IC50 ± SEM Panc-1
Experimental: as §1, §2, §3, §4, §5, §6, §7, §8

[5] = test system: four human cancer cell lines (HT-29, Panc-1, A-549, MCF-7); experiment: Average antiproliferative activity (GI50) over four cancer cell lines; assay type: cell-based; conditions: average IC50 against the four cancer cell lines
Experimental: as §1, §2, §3, §4, §5, §6, §7, §8

O=c1c2ccccc2nc(SCc2nc(-c3ccc(Cl)cc3)no2)n1-c1ccccc1 [Compound 9b, 2-((3-(4-Chlorophenyl)-1,2,4-oxadiazol-5-yl)methylthio)-3 phenylquinazolin-4(3H)-one]
IC50 [1]: 26 ± 2 nM | Effect on cell cycle (A-549 cells): cell cycle arrest at the G2/M transition | IC50 [2]: 22 ± 2 nM | IC50 (BRAF^V600E): 48 ± 4 nM | viability at 96 h, 50 µM [3]: 89% | IC50 [4]: 24 ± 2 nM | GI50 [5]: 24 nM
